Test results as given in US4596810A, “Emulsions of perfluoro octahydro quinolizines useful as blood substitutes” (The Green Cross Corporation, priority 1984, dated 1986).

Experiments:
Wister-strain male rats = assay: Acute Toxicity Test (intravenous); type: in vivo, rat; settings: 100 ml/kg-body weight, isotonized emulsion (Table 4), observed one week
Experimental: The acute toxicity test on the preparations of the present invention was carried out using the preparations of the present invention shown in Table 4 which had been physiologically isotonized. The test animals used were Wister-strain male rats (weighing 100-120 g).

[1] = Distribution of Perfluoro-compound in Organs (gas chromatography); type: in vivo, Wister-strain male rats; settings: for Residual Rate of perfluorobicyclo compound: 3 Months, 4 g/kg tail vein
Text: The content of perfluoro-4-methyloctanhydroquinolidine uptake in each organ 1, 2 and 4 weeks and 3 months after the administration are shown in Table 5.

| SMILES | death cases (Wister-strain male rats) | adverse influence on the liver or spleen organ ([1]; 4 g/kg into the tail vein, 3 months) | Residual Rate of perfluorobicyclo compound ([1]; Liver) [%] | Residual Rate of perfluorobicyclo compound ([1]; Spleen) [%] |
| --- | --- | --- | --- | --- |
| FC(F)(F)C(F)(F)C1(F)N2C(F)(F)C(F)(F)C(F)(F)C(F)(F)C2(F)C(F)(F)C(F)(F)C1(F)F (centres unmarked) [perfluoro-4-ethyloctahydroquinolidine] | no death case | – | – | – |
| FC(F)(F)C1(F)N2C(F)(F)C(F)(F)C(F)(F)C(F)(F)C2(F)C(F)(F)C(F)(F)C1(F)F (centres unmarked) [perfluoro-4-methyloctahydroquinolidine] | no death case | no evidence of adverse influence on the liver or spleen organ | 0.30 | 0.09 |
